From patent publication US11649238B2, “Substituted pyrazolo[1,5-a]pyrimidines as PI4K inhibitors” (GLAXOSMITHKLINE INTELLECTUAL PROPERTY DEVELOPMENT LIMITED, priority 2018, dated 2023)
“And” between values parts separate entries of the source, which are not always exact repeats. Identical values can stand only once.

Legend:
[1] = system: human rhinovirus Type A Strain 16 (HRVA16) in HeLa Ohio cells; experiment: Cytopathic Effect (CPE) Assay, ATP-depletion in infected HeLa Ohio cells; format: cell-based; conditions: HRVA16 at MOI of 1, 33° C. for 2 days, CellTiter-Glo
Protocol: c) Cytopathic Effect (CPE) Assay Protocol
The in vitro inhibition of PI4 KB activity was determined by analysis of the inhibition of ATP-depletion in HeLa Ohio cells in response to infection with human rhinovirus Type A Strain 16 (HRVA16). ATP levels were determined using CellTiter-GLO reagent from Promega. Compounds that inhibit PI4 KB are also potent inhibitors of human rhinoviruses and are able to protect HeLa Ohio cells from CPE induced by viral infection and replication. Protected cells remain viable following viral infection and therefore have greater ATP levels.
Compounds were dissolved in 100% DMSO to a concentration of 3 mM and subsequent dilutions were prepared in 100% DMSO using a 1:3 serial step dilution. A 0.5 μL stamp from an 10-point titration was transferred to a white 96 well Greiner tissue culture flat bottom plate (655083). A 0.5 μL stamp of 100% DMSO was stamped into columns 11 and 12 of the plate, ensuring a final assay DMSO concentration of 0.33% across the plate and a compound top final assay concentration of 10 μM.
HeLa Ohio cells were cultured at 37° C., 5% CO2 in media (DMEM supplemented with 10% Australian origin foetal bovine serum and 2 mM glutamax). Cells were passaged when confluency reached >80%. For the assay, cells were grown to 80-90% confluency before detachment.
Cells were detached for the assay by washing with PBS and detached using 3 mL TrypLE Express for […] at 37° C. Detached cells were mixed with 7 mL of media and centrifuged at 300 g for 5 min. The cell pellet was resuspended in 50 mL media and counted on a Beckman Coulter ViCell. Cells were diluted to 6.6×10^4 cells/mL and some of the cell volume was removed into a new tube to be used as a column 12 control. HRVA16 stock was added to the remaining cell suspension at the appropriate dilution for the virus stock to achieve an MOI of 1.
150 μL of the cell+virus suspension was added per well to columns 1-11 using a Multidrop Combi. 150 μL of the separate cell suspension was added per well to columns 12 using a multichannel pipette. Assay plates were sealed and incubated at 33° C., 5% CO2 for 2 days. After 2 days, assay plates were removed from the incubator and allowed to equilibrate to room temperature. 60 μL of CellTiter-Glo reagent was added to all wells using a Thermo Scientific Multidrop Combi. Plates were incubated at room temperature for 20 min before reading on an a Perkin Elmer Envision (Settings: Gripper height 2.5, Fixed measurement height (mm) 6.5, Distance between plate and detector 0, Measurement time (s) 0.1, Glow (ct2) correction factor (0%)).
The inhibitory effect of the compounds on the PI4 KB activity was evaluated by the IC50 of the response relative to the high (no virus, column 12) and low (virus+no inhibitor, column 11) controls by fitting to a four parameter dose response equation.

[2] = biological target: T1, human PI4KIII-beta 13-828 (D316-330) (Homo sapiens, UniProt Q9UBF8); experiment: PI4 KB Activity Assay (ADP-GLO Kinase assay); format: biochemical; conditions: 1 mM ATP, 60 μM phosphatidylinositol, 3 hours at room temperature; read-out: mean pIC50 (converted)
T1 construct: human PI4KIII-beta 13-828 (D316-330)
Method in brief: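 Human PI4KIII-beta 13-828 (Δ316-330), 1.5 nM, with 1 mM ATP and 60 μM phosphatidylinositol in Hepes pH 7.5/MgCl2 buffer, 11-point titration (top 10 μM, 1% DMSO), 3 h at room temperature. ADP measured by ADP-Glo luminescence; IC50 by four-parameter fit against no-compound and no-enzyme controls.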

T1 sequence (Q9UBF8 1-801 isoform Q9UBF8-2): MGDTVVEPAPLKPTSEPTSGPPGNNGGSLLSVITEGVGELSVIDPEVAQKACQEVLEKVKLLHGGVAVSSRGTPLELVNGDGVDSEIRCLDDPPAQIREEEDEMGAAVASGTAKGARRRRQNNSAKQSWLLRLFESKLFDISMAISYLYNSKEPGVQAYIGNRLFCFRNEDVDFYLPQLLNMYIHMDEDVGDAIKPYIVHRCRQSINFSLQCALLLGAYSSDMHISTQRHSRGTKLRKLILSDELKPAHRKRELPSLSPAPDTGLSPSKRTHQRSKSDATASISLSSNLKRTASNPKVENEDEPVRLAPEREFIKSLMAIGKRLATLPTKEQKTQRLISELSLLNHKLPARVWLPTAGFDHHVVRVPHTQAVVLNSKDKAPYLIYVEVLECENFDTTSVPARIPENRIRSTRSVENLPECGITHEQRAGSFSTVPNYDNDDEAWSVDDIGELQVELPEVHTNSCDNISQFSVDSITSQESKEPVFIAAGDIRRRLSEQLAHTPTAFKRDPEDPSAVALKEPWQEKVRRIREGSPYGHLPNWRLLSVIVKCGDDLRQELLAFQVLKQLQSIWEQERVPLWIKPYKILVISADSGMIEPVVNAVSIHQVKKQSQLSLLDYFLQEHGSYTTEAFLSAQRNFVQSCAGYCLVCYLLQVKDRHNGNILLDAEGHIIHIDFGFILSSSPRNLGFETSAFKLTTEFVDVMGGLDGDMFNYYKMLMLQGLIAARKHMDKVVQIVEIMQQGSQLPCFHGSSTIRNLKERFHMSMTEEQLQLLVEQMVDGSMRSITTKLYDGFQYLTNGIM

| mean pIC50 [1] | IC50 [2] | SMILES |
| --- | --- | --- |
| 8.8 | 6.31 nM | COc1ccc(-c2c(C)nn3c(NCc4cccc(-c5nccn5C)c4)cc(C(C)(C)O)nc23)cc1C(=O)N(C)C1CCOCC1 [Compound 21, 5-(5-(2-Hydroxypropan-2-yl)-2-methyl-7-((3-(1-methyl-1H-imidazol-2-yl)benzyl)amino)pyrazolo[1,5-a]pyrimidin-3-yl)-2-methoxy-N-methyl-N-(tetrahydro-2H-pyran-4-yl)benzamide] |
| at least 9.1 | 3.16 nM and ≤ 3.98 nM | Cc1ccc(-c2c(C)nn3c(NCc4cccc(-c5nccn5C)c4)cc(C(C)(C)O)nc23)cc1C(=O)N(C)[C@@H](C)CO [Compound 22, (S)—N-(1-hydroxypropan-2-yl)-5-(5-(2-hydroxypropan-2-yl)-2-methyl-7-((3-(1-methyl-1H-imidazol-2-yl)benzyl)amino)pyrazolo[1,5-a]pyrimidin-3-yl)-N,2-dimethylbenzamide] |
| 8.9 | 2.51 nM and ≤ 3.98 nM | CCN(CCO)C(=O)c1cc(-c2c(C)nn3c(NCc4cccc(-c5nccn5C)c4)cc(C(C)(C)O)nc23)ccc1OC [Compound 19, N-ethyl-N-(2-hydroxyethyl)-5-(5-(2-hydroxypropan-2-yl)-2-methyl-7-((3-(1-methyl-1H-imidazol-2-yl)benzyl)amino)pyrazolo[1,5-a]pyrimidin-3-yl)-2-methoxybenzamide] |
| 8.9 | 2.51 nM and ≤ 3.98 nM | Cc1ccc(-c2c(C)nn3c(NCc4cccc(-c5nccn5C)c4)cc(C(C)(C)O)nc23)cc1C(=O)N(C)CCCO [Compound 17, 5-(5-(2-Hydroxypropan-2-yl)-2-methyl-7-((3-(1-methyl-1H-imidazol-2-yl)benzyl)amino)pyrazolo[1,5-a]pyrimidin-3-yl)-N-(3-hydroxypropyl)-N,2-dimethylbenzamide] |
